How the values were obtained:
SN12C = assay: Growth inhibition of human SN12C cells assessed as cell growth at 10 uM after 48 hrs by sulforhodamine B assay; format: functional; conditions: read-out: Activity
M14 = assay: Growth inhibition of human M14 cells assessed as cell growth at 10 uM after 48 hrs by sulforhodamine B assay; format: functional; conditions: M14, 48 h, read-out: Activity
SF-268 = assay: Growth inhibition of human SF268 cells assessed as cell growth at 10 uM after 48 hrs by sulforhodamine B assay; format: functional; conditions: SF-268, 48 h, read-out: Activity
NCI-H460 = assay: Growth inhibition of human NCI-H460 cells assessed as cell growth at 10 uM after 48 hrs by sulforhodamine B assay; format: functional; conditions: NCI-H460, 48 h, read-out: Activity
HCT-116 = assay: Growth inhibition of human HCT116 cells after 48 hrs by sulforhodamine B assay; format: functional; conditions: HCT-116, 48 h; for CC50: read-out: LC50 (the source's name)
NCI-H322M = assay: Growth inhibition of human NCI-H322M cells after 48 hrs by sulforhodamine B assay; format: functional; conditions: for CC50: read-out: LC50 (the source's name)
MDA-MB-468 = assay: Growth inhibition of human MDA-MB-468 cells after 48 hrs by sulforhodamine B assay; format: functional, cell-based; conditions: MDA-MB-468, 48 h; for CC50: read-out: LC50 (the source's name)
UO-31 = assay: Growth inhibition of human UO31 cells after 48 hrs by sulforhodamine B assay; format: functional; conditions: UO-31, 48 h; for CC50: read-out: LC50 (the source's name)
PC-3 = assay: Growth inhibition of human PC3 cells after 48 hrs by sulforhodamine B assay; format: functional, cell-based; conditions: PC-3, 48 h; for CC50: read-out: LC50 (the source's name)
OVCAR-4 = assay: Growth inhibition of human OVCAR4 cells after 48 hrs by sulforhodamine B assay; format: functional; conditions: OVCAR-4, 48 h
LOX IMVI = assay: Growth inhibition of human LOXIMVI cells after 48 hrs by sulforhodamine B assay; format: functional
SNB-19 = assay: Growth inhibition of human SNB19 cells after 48 hrs by sulforhodamine B assay; format: functional; conditions: SNB-19, 48 h

Compound COc1cc(-c2nn(-c3cccc(NC(=O)Nc4ccccc4)c3)cc2-c2ccncc2)ccc1Cl has a growth at 10 µM (SN12C) of 86.2%, a growth at 10 µM (M14) of 85.7% and a growth at 10 µM (SF-268) of 81.2%. For the same compound, the growth at 10 µM (NCI-H460) was 93.7%.
O=C(Nc1cccc(-n2cc(-c3ccncc3)c(-c3ccc(Cl)c(O)c3)n2)c1)c1ccccc1 showed a growth at 10 µM (SN12C) of 79.3%, a growth at 10 µM (M14) of 54.9% and a growth at 10 µM (SF-268) of 68.3%. The growth at 10 µM (NCI-H460) was 48.7%.
In the case of COc1cc(-c2nn(-c3cccc(NC(=O)c4ccc(Cl)c(C(F)(F)F)c4)c3)cc2-c2ccncc2)ccc1Cl, the growth at 10 µM (SN12C) is reported as 57.3%, the GI50 (HCT-116) is reported as 2.49 µM and the TGI (HCT-116) is reported as > 32.5 µM. The CC50 (HCT-116) was > 32.5 µM, the GI50 (NCI-H322M) was 12.8 µM and the TGI (NCI-H322M) was > 32.5 µM. The CC50 (NCI-H322M) was > 32.5 µM, the growth at 10 µM (M14) was 26.2% and the growth at 10 µM (SF-268) was 46.7%. It also gave a growth at 10 µM (NCI-H460) of 25.4%, a GI50 (MDA-MB-468) of 3.69 µM and an IC50 (MDA-MB-468) of 3.69 µM. For the same compound, the TGI (MDA-MB-468) was > 32.5 µM, the CC50 (MDA-MB-468) was > 32.5 µM and the GI50 (UO-31) was 0.267 µM. The TGI (UO-31) was > 32.5 µM, the CC50 (UO-31) was > 32.5 µM and the GI50 (PC-3) was 1.29 µM. The IC50 (PC-3) was 1.29 µM, the TGI (PC-3) was > 32.5 µM and the CC50 (PC-3) was > 32.5 µM. For the same compound, the GI50 (OVCAR-4) was 8.04 µM, the LC50 (concentration killing 50% of cells) (OVCAR-4) was > 32.5 µM and the TGI (OVCAR-4) was > 32.5 µM. For the same compound, the GI50 (LOX IMVI) was 1.92 µM, the LC50 (LOX IMVI) was > 32.5 µM and the TGI (LOX IMVI) was > 32.5 µM. For the same compound, the GI50 (SNB-19) was 8.68 µM, the LC50 (concentration killing 50% of cells) (SNB-19) was > 32.5 µM and the TGI (SNB-19) was > 32.5 µM.
In the case of O=C(Nc1cccc(-n2cc(-c3ccncc3)c(-c3ccc(Cl)c(O)c3)n2)c1)Nc1ccc(Cl)c(C(F)(F)F)c1, the growth at 10 µM (SN12C) is reported as 7.46%, the GI50 (HCT-116) is reported as 0.998 µM and the TGI (HCT-116) is reported as 3.94 µM. The CC50 (HCT-116) was > 32.5 µM, the GI50 (NCI-H322M) was 1.09 µM and the TGI (NCI-H322M) was 4.48 µM. The CC50 (NCI-H322M) was 24.7 µM, the growth at 10 µM (M14) was -25.5% and the growth at 10 µM (SF-268) was -34.5%. It also gave a growth at 10 µM (NCI-H460) of -43.7%, a GI50 (MDA-MB-468) of 0.541 µM and an IC50 (MDA-MB-468) of 0.54 µM. For the same compound, the TGI (MDA-MB-468) was 1.75 µM, the CC50 (MDA-MB-468) was > 32.5 µM and the GI50 (UO-31) was 0.777 µM. For the same compound, the TGI (UO-31) was 3.01 µM, the CC50 (UO-31) was > 32.5 µM and the IC50 (PC-3) was 0.59 µM. The CC50 (PC-3) was > 32.5 µM, the GI50 (OVCAR-4) was 1.2 µM and the LC50 (concentration killing 50% of cells) (OVCAR-4) was > 32.5 µM. The TGI (OVCAR-4) was > 32.5 µM, the GI50 (LOX IMVI) was 0.554 µM and the LC50 (LOX IMVI) was 2.39 µM. For the same compound, the TGI (LOX IMVI) was 1.15 µM, the GI50 (SNB-19) was 1.12 µM and the LC50 (concentration killing 50% of cells) (SNB-19) was > 32.5 µM. The TGI (SNB-19) was 4.86 µM.
For COc1cc(-c2nn(-c3cccc(NC(=O)c4ccc(N5CCOCC5)c(C(F)(F)F)c4)c3)cc2-c2ccncc2)ccc1Cl, the growth at 10 µM (SN12C) was 31%, the GI50 (HCT-116) was 0.4 µM and the TGI (HCT-116) was > 100 µM. The CC50 (HCT-116) was > 100 µM, the GI50 (NCI-H322M) was 0.603 µM and the TGI (NCI-H322M) was 94.4 µM. The CC50 (NCI-H322M) was > 100 µM, the growth at 10 µM (M14) was 1.42% and the growth at 10 µM (SF-268) was 22.5%. It also gave a growth at 10 µM (NCI-H460) of 5.02%, a GI50 (MDA-MB-468) of 0.183 µM and an IC50 (MDA-MB-468) of 0.18 µM. For the same compound, the TGI (MDA-MB-468) was 0.781 µM, the CC50 (MDA-MB-468) was 5.53 µM and the GI50 (UO-31) was 0.289 µM. For the same compound, the TGI (UO-31) was 7.53 µM, the CC50 (UO-31) was > 100 µM and the GI50 (PC-3) was 0.251 µM. The IC50 (PC-3) was 0.25 µM, the TGI (PC-3) was 14.7 µM and the CC50 (PC-3) was > 100 µM. For the same compound, the GI50 (OVCAR-4) was 0.957 µM, the LC50 (concentration killing 50% of cells) (OVCAR-4) was > 100 µM and the TGI (OVCAR-4) was > 100 µM. For the same compound, the GI50 (LOX IMVI) was 0.371 µM, the LC50 (LOX IMVI) was > 100 µM and the TGI (LOX IMVI) was 6.2 µM. The GI50 (SNB-19) was 0.52 µM, the LC50 (concentration killing 50% of cells) (SNB-19) was > 100 µM and the TGI (SNB-19) was > 100 µM.
For COc1cc(-c2nn(-c3cccc(NC(=O)c4ccccc4)c3)cc2-c2ccncc2)ccc1Cl, the growth at 10 µM (SN12C) was 28.8%, the GI50 (HCT-116) was 0.5 µM and the TGI (HCT-116) was > 100 µM. For the same compound, the CC50 (HCT-116) was > 100 µM, the GI50 (NCI-H322M) was 4.59 µM and the TGI (NCI-H322M) was > 100 µM. For the same compound, the CC50 (NCI-H322M) was > 100 µM, the growth at 10 µM (M14) was -3.82% and the growth at 10 µM (SF-268) was 18.7%. It also gave a growth at 10 µM (NCI-H460) of 2.74%, a GI50 (MDA-MB-468) of 0.349 µM and an IC50 (MDA-MB-468) of 0.35 µM. For the same compound, the TGI (MDA-MB-468) was 3.42 µM, the CC50 (MDA-MB-468) was > 100 µM and the GI50 (UO-31) was 0.638 µM. The TGI (UO-31) was > 100 µM, the CC50 (UO-31) was > 100 µM and the GI50 (PC-3) was 0.426 µM. The IC50 (PC-3) was 0.43 µM, the TGI (PC-3) was > 100 µM and the CC50 (PC-3) was > 100 µM. For the same compound, the GI50 (OVCAR-4) was 1.17 µM, the LC50 (concentration killing 50% of cells) (OVCAR-4) was > 100 µM and the TGI (OVCAR-4) was > 100 µM. The GI50 (LOX IMVI) was 0.567 µM, the LC50 (LOX IMVI) was > 100 µM and the TGI (LOX IMVI) was > 100 µM. The GI50 (SNB-19) was 0.86 µM, the LC50 (concentration killing 50% of cells) (SNB-19) was > 100 µM and the TGI (SNB-19) was > 100 µM.

Reference: ChEMBL document CHEMBL2440076, “New triarylpyrazoles as broad-spectrum anticancer agents: design, synthesis, and biological evaluation” (Eur J Med Chem, 2013)
